The results in this text go back to patent US8022268B2, “Transgenic animal model for alzheimer's disease” (The University of Zurich, priority 2007, dated 2011).

One experiment concerns brain β-amyloid plaques. In words: Blood brain barrier penetration and binding to Aβ deposits after peripheral administration (double staining with 6E10 and anti-human IgG). It counts as in vivo. Particulars: 24 month arcAβ mice, 3 mg/kg i.p. weekly for 2 months; 6E10 and anti-human IgG double staining. As to the method:
ArcAβ mice were generated as described in the previous Examples on a hybrid background of C57B1/6 and DBA2. The test group was backcrossed once to C57B1/6. Mice were kept under standard housing conditions on a reversed 12 h:12 h light/dark cycle and had free access to food and water. The treatment groups were balanced for age and gender.
Recombinant human anti-Aβ antibody NI-101.10 was produced in stably transfected 293 HEK cells and purified using standard Protein A column purification. Control antibody Humira (Adalimumab, Abbott, Switzerland) was dissolved in medium conditioned by 293 HEK cells and purified as described.
(§1) 24 month old arcAβ mice were injected weekly i.p. with recombinant human NI-101.10 or Humira control antibody (3 mg/kg body weight) over a time period of 2 months (8 injections). The allocation of mice to the individual groups was: n=[…] and 4 wt for the NI-101.10 treatment groups; n=[…] and 6 wt for the control antibody treatment groups.
Mice were anesthetized (10 ul/g bw ketamin/xylaxine) and perfused transcardially with PBS. One brain hemisphere was dissected into cortex, hippocampus and cerebellum and immediately frozen on dry-ice for further biochemical analysis. The other hemisphere was fixed in 4% paraformaldehyde and embedded in paraffin. 5 μm sagittal sections were cut with a Leica RM 2135 microtome (Bannockburn, Ill.). […]

Another experiment deals with arcAβ mice. In words: fMRI vascular reactivity to acetazolamide (cerebral blood volume) after passive immunization. Type of experiment: in vivo. Particulars: transgenic (tg) arcAβ mice after 2 months antibody treatment. Here is the method:
as §1
ArcAβ mice and their wildtype littermates were measured before (n=3 tg and 3 wt) or after the antibody treatment (n=5 tg NI-101.10, 4 tg Humira, […], 6 wt Humira). Mice were anesthetized with Isofluran, intubated and artificially ventilated during the MR experiment. The mice were placed on a water-heated cradle and all agents were injected via cannula into the tail vein. Experiments were performed on a 4.7 Tesla Pharmascan 47/16 (Bruker BioSpin GmbH, Germany). Scan parameters of the RARE sequence (Hennig et al., Magn. Reson. Med. 3 (1986), 823-833) were set as followed: spatial resolution: 156×156×700 μm^3, temporal resolution: 40 s, repetition time: 2500 ms, echo time (eff. TE): 80.2 ms, field of view (FOV): 2×1.3 cm^2, RARE factor: 32, matrix dimension: 128×128, slice thickness: 0.7 mm, inter-slice distance: 1.2 mm, number of averages: 4, number of slices: 5. fMRI measurement comprised 3 phases: 8 baseline images (S pre) were acquired as reference for the determination of the relative cerebral blood volume (CBVrel) changes. […]

On to Adalimumab [Humira], for which, in the experiment with brain β-amyloid plaques, the “binding of human antibody to Aβ deposits in brain sections” value was “No such binding”. The “mean ACBV % (integrated, after acetazolamide 30 mg/kg)” value with arcAβ mice is 500%.
